Measured values from ChEMBL document CHEMBL1125922, “Peptide leukotrienes: current status of research” (J Med Chem, 1991).

Legend:
[1] = biological target: T1, Cysteinyl leukotriene receptor 1 (Cavia porcellus, UniProt Q2NNR5); assay: Compound was evaluated for its ability to displace [3H]LTD4 from Cysteinyl leukotriene D4 receptor in guinea pig lung membranes; type: cell membranes, Membrane
T1 sequence (Q2NNR5 whole entry): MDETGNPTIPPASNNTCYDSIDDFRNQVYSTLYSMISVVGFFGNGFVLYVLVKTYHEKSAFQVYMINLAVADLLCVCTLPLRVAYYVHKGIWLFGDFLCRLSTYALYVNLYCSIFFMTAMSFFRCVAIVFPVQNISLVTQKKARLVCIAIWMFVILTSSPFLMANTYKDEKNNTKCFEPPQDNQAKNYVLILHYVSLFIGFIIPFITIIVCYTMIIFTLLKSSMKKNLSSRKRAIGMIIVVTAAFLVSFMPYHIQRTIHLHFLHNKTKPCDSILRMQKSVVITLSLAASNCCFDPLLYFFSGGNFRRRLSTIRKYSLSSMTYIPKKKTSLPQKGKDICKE

Cavia porcellus [2] = species on record: Cavia porcellus; assay: (§1) Antagonistic activity against LTD4 induced contraction in guinea pig trachea; type: functional
Cavia porcellus [3] = species on record: Cavia porcellus; assay: as §1; type: functional, organism-based; conditions: for Kb: read-out: pA2 (converted)
Homo sapiens = species on record: Homo sapiens; assay: Antagonistic activity against LTD4 induced contraction in human bronchus; type: functional
[4] = biological target: T1, Cysteinyl leukotriene receptor 1; assay: Compound was evaluated for its ability to displace [3H]LTD4 from LTD4 receptor in guinea pig lung membranes; type: cell membranes, Membrane
Cavia porcellus [5] = species on record: Cavia porcellus; assay: Antagonistic activity against LTD4 induced contraction in guinea pig lung parenchymal strips; type: functional; conditions: Lung parenchyma, read-out: pA2 (converted)
Cavia porcellus [6] = species on record: Cavia porcellus; assay: Antagonistic activity against LTD4 induced contraction in guinea pig ileum; type: functional

| Compound | pKB (Cavia porcellus [2]) | Kb (Cavia porcellus [3]) [nM] | further results |
| --- | --- | --- | --- |
| CCCCC/C=C/C\C=C/C=C/C=C/[C@@H](Sc1ccc2c(=O)cc(C(=O)O)oc2c1)[C@H](O)CCCC(=O)O | – | – | IC50 [1]: 100 nM |
| O=C(Nc1cccc2c(=O)cc(-c3nnn[nH]3)oc12)c1ccc(OCCCCc2ccccc2)cc1 | 7.5 | – | – |
| O=C(O)CCS[C@@H](CC(=O)O)c1ccccc1CCCCCCCCc1ccccc1 | 7.6 | – | Ki [1]: 60 nM |
| CCCCCCCCC/C=C\C=C\[C@@H](SCCC(=O)O)[C@@H](O)c1cccc(-c2nnn[nH]2)c1 | – | 7.94 | – |
| CCC(CC)(CC(=O)Nc1cccc(/C=C/c2nc(C3CCC3)cs2)c1)C(=O)O | – | – | pKB (Homo sapiens): 9.3 |
| CCCc1c(OCCCOc2cc(NC(=O)c3nn[nH]n3)c(C)cc2Cl)ccc(C(C)=O)c1O [CGP-35949] | – | 39.8 | – |
| CCCc1c(OCC(O)COc2ccc3c(=O)cc(C(=O)O)oc3c2CCC)ccc(C(C)=O)c1O (stereo unspecified) [FPL-55712] | – | 200 | – |
| COc1cc(C(=O)NS(=O)(=O)c2ccccc2)ccc1Cn1ncc2ccc(NC(=O)OC3CCCC3)cc21 [ICI-198615] | – | 0.0794 | Ki [4]: 0.3 nM |
| CCCc1c(OCCCS(=O)(=O)c2ccc(C(=O)CCC(=O)O)cc2)ccc(C(C)=O)c1O [L-648051] | – | 50.1 | – |
| CCCc1c(OCCCSc2ccc([C@@H](O)[C@H](C)CC(=O)O)cc2)ccc(C(C)=O)c1O [L-649923] | – | 63.1 | Ki [4]: 400 nM |
| CCCc1c(COc2ccc(Cc3nnn[nH]3)cc2)ccc(C(C)=O)c1O [LY-163443] | 7.5 | – | – |
| CCCc1c(OCCCCc2nnn(CCCCc3nnn[nH]3)n2)ccc(C(C)=O)c1O [LY-203647] | 6.4 | – | – |
| CN(C)C(=O)CCSC(SCCC(=O)O)c1cccc(/C=C/c2ccc3ccc(Cl)cc3n2)c1 (stereo unspecified) [MK-571] | 9.3 | – | Ki [1]: 0.2 nM |
| O=C(O)CCS[C@H](c1ccccc1CCCCCCCCc1ccccc1)[C@@H](O)C(=O)O [POBILUKAST] | – | 2.51 | – |
| c1ccc(Cc2nn[nH]n2)c(COc2ccc(OCc3ccc4ccccc4n3)cc2)c1 [RG-12525] | – | – | Kb (Cavia porcellus [5]): 3.98 nM |
| O=S(=O)(Nc1cccc(OCc2ccc3ccccc3n2)c1)C(F)(F)F [RITOLUKAST] | 7.8 | – | – |
| CCCc1c(OCCCOc2ccc3c(c2CCC)OC(C)(CCC(=O)O)CC3=O)ccc(C(C)=O)c1O (stereo unspecified) [SC-39070] | – | – | pKB (Cavia porcellus [6]): 8.2 |
| O=C(O)c1ccccc1Nc1cccc(OCc2ccc3ccccc3n2)c1 [SR-2640] | 8.7 | – | – |
| CCCc1c(OCCCCc2nnn[nH]2)ccc(C(C)=O)c1O [TOMELUKAST] | 6.9 | – | Ki [4]: […] |
| CCCc1c(OCCCSc2nnc(SCC(=O)O)s2)ccc(C(C)=O)c1O [YM-16638] | – | – | IC50 (Cavia porcellus [3]): 160 nM |
| COc1cc(C(=O)NS(=O)(=O)c2ccccc2C)ccc1Cc1cn(C)c2ccc(NC(=O)OC3CCCC3)cc12 [ZAFIRLUKAST] | 9.5 | – | – |
